The IC50 is the concentration that inhibits the measured activity by half. Higher therefore signals weaker potency.

The assay deals with CDK2 (human) (UniProt P24941). Put plainly: Enzyme Assay.

In turn, `CN(C)CCn1ccc2c(-c3ccnc(Nc4cccc(Cl)c4)n3)cccc21` registered an IC50 below 5 µM. In the case of `NS(=O)(=O)c1cccc(Nc2ncc(F)c(-c3cccc4[nH]ccc34)n2)c1` it was below 5 µM; in that of `CNC(=O)Cn1ccc2c(-c3ccnc(Nc4cccc(Cl)c4)n3)cccc21`, below 5 µM; in that of `Cc1cnc(Nc2cccc(S(N)(=O)=O)c2)nc1-c1cccc2[nH]ccc12`, below 5 µM. The result for `CN(C)CCCn1ccc2c(-c3ccnc(Nc4cccc(Cl)c4)n3)cccc21` reads below 5 µM; that for `OCCCn1ccc2c(-c3ccnc(Nc4cccc(Cl)c4)n3)cccc21`, below 5 µM; that for `Cc1cnc(Nc2cccc(S(C)(=O)=O)c2)nc1-c1cccc2[nH]ccc12`, below 5 µM. Molecule `OCCn1ccc2c(-c3ccnc(Nc4cccc(Cl)c4)n3)cccc21` had an IC50 below 5 µM. The result for `Cc1ccc2[nH]ccc2c1-c1ccnc(Nc2cccc(S(C)(=O)=O)c2)n1` reads below 5 µM. The result for `O=C(Cn1ccc2c(-c3ccnc(Nc4cccc(Cl)c4)n3)cccc21)NCCO` reads below 5 µM.

Consider `COc1cnc(Nc2cccc(S(N)(=O)=O)c2)nc1-c1cccc2[nH]ccc12`, for which the IC50 is below 5 µM. The result for `O=C(Cn1ccc2c(-c3ccnc(Nc4cccc(Cl)c4)n3)cccc21)NCC1CCCN1` (stereo unspecified) reads below 5 µM; that for `Cn1ccc2c(-c3ccnc(Nc4cccc(Cl)c4)n3)cccc21`, below 5 µM; that for `CC(C)(C)NC(=O)Cn1ccc2c(-c3ccnc(Nc4cccc(Cl)c4)n3)cccc21`, below 5 µM. In the case of `CS(=O)(=O)c1cccc(Nc2nccc(-c3cccc4[nH]ccc34)n2)c1` it was below 5 µM. The molecule `CN(C)C(=O)Cn1ccc2c(-c3ccnc(Nc4cccc(Cl)c4)n3)cccc21` registered an IC50 below 5 µM.

These data come from the Kinase Knowledgebase extract (Sharma et al. 2016).
